Entries after “also recorded” stand apart in the source; their conditions may differ.
Legend:
hPTP1B1–285 = biological target: T1, hPTP1B1–285 (Homo sapiens, UniProt P18031); test: PTP1B activity assay, short form hPTP1B1–285 (p‐NPP); type: biochemical; settings: ± S.D; p‐NPP substrate, 15 min at 37 °C
T1 construct: hPTP1B1–285 (the short form with an N‐terminal catalytic domain)
T1 sequence (P18031 1-285): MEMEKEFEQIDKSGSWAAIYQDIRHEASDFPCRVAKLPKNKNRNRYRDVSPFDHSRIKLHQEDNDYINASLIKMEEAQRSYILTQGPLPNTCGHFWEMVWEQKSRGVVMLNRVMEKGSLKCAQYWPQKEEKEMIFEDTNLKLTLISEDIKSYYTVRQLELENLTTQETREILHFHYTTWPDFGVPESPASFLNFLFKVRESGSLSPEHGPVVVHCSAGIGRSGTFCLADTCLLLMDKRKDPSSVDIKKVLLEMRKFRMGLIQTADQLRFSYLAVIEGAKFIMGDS
Protocol: The inhibitory activity of PTP1B was assessed using two enzyme variants: hPTP1B1–285 (the short form with an N‐terminal catalytic domain) and hPTP1B1–400 (the long form with an intrinsically disordered C‐terminal regulatory domain). […] According to Coronel‐Tovar et al., the disordered region of the C‐terminal domain plays a crucial role in modulating PTP1B enzymatic activity.^[ [30] ^] […] Different concentrations of the compounds were evaluated to determine their IC50 values (Table 1 ).
To do so, these terpenoids were tested against hPTP1B1–285.
Recombinant human protein tyrosine phosphatase 1B, consisting of 400 and 285 amino acid residues, was used.^[ [35] ^] […] Aliquots of 0–10 µL of the test compounds (triplicate) were taken and incubated for 15 min at 37 °C with 85 µL of Tris buffer solution (50 mM, pH 6.8) containing PTP1B enzyme and 5 µL of p‐nitrophenyl phosphate substrate (p‐NPP, 10 mM). Absorbance was then measured at a wavelength of 405 nm. The inhibitory activity was determined according to Equation (1). (1) % PTP1B=(A405b/A405c)×100 where % PTP1B: Is the percentage of inhibition. A 405c: Is the corrected absorbance of the blank (A 405initial–A 405final). A 405b: Is the corrected absorbance of the compounds (A 405control–A 405compound).

HepG2 cells = test: Cell viability with crystal violet; type: cell-based; settings: 1 and 25 µM, 24 h
Protocol: Subsequently, we evaluated the same compounds in a HepG2 insulin‐resistant model.
A 96‐well plate was seeded with 3,000 cells per well and incubated for 24 h. Afterward, the cells were treated with test compounds at various concentrations for 24 h. After incubation, the media was removed, and 100 µL of 1% glutaraldehyde was added for 15 min. Afterward, the liquid was removed, and 50 µL of 0.5% crystal violet (dissolved in 25% methanol) was added for 30 min. The crystal violet staining solution was removed, and the plate was thoroughly washed with tap water. The precipitate was dissolved in a 10% acetic acid solution and mixed for 15 min. The absorbance was then measured at 590 nm using a plate reader (xMark Microplate Spectrophotometer—Bio‐Rad).
Figure S59. Cell viability assessment by crystal violet staining. HepG2 cell viability was evaluated
after treatment with the respective compounds at concentrations of 1 and 25 µM for 24 hours. Bar
graphs represent mean ± SEM.

Structure (SMILES): CC1(C(=O)O)CCC2(C)CCC3(C)C(=CC(=O)C4C5(C)Cc6c([nH]c7ccc(C(F)(F)F)cc67)C(C)(C)C5CCC43C)C2C1 (centres unmarked) [Compound 3c]
- IC50 (hPTP1B1–285): 14.9 ± 0.95 µM
- HepG2 cell viability (HepG2 cells): No significant differences; also recorded: did not compromise HepG2 cell viability
